From article PMC2788680 (Journal of medicinal chemistry, 2009)
Entries after “also recorded” stand apart in the source; their conditions may differ. Like-named read-outs stand apart in the source and are kept apart here. Numbered stars: 1 amine (or outer) side, 2 acyl side, 3 side chain; on linkers, the order of the positions; unused ones are H or OH. Bridge positions count the residues as written; N and C are the ends. Square brackets hold non-standard residues; d marks the D form. Peptide text beside a SMILES is read from it. 2Nal = N[C@@H](Cc1ccc2ccccc2c1)C(=O)O; CH2 = C([*:1])[*:2]

What was measured:
DOR [1] = molecular target: T1, DOR (Rattus norvegicus, UniProt P33533); type: cell-based
T1 sequence (P33533 whole entry): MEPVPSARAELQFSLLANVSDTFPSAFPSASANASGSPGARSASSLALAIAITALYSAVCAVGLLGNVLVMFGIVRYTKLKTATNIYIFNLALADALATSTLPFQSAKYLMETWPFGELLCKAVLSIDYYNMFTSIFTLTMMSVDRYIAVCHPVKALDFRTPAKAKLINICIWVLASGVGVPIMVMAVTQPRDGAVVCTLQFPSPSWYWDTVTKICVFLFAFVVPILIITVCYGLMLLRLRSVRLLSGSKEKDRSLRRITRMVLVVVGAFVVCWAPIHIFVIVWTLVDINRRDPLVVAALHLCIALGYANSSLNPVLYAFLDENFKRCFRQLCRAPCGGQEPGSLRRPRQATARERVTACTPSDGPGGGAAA

KOR = KOR (Homo sapiens, UniProt P41145); experiment: [35S]GTPγS binding assay, CHO-KOR membranes; type: biochemical; settings: [35S]GTPγS assay
KOR, sequence (P41145 whole entry): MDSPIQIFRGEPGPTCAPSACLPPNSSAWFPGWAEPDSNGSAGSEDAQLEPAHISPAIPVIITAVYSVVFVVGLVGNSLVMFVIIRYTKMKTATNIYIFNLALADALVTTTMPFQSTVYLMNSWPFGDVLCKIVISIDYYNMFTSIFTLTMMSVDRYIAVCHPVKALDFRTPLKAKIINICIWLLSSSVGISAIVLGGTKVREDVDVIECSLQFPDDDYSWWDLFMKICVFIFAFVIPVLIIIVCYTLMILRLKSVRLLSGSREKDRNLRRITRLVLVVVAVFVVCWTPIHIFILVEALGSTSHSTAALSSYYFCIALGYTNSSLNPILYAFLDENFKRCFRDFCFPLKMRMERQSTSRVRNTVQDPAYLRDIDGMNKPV

MOR = MOR (Rattus norvegicus, UniProt P33535); experiment: [35S]GTPγS binding assay, C6-MOR membranes; type: biochemical; settings: [35S]GTPγS assay
MOR, sequence (P33535 whole entry): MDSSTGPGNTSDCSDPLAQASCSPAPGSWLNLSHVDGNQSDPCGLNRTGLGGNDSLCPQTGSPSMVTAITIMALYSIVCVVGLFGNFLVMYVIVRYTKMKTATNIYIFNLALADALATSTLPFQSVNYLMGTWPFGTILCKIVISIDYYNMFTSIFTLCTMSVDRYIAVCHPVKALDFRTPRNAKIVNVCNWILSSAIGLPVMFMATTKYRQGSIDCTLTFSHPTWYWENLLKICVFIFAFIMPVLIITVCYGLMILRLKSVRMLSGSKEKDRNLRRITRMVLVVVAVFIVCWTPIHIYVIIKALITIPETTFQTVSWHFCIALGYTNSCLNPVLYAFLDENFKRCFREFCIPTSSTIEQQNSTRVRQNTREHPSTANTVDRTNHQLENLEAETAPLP

DOR [2] = molecular target: T1, DOR; experiment: Antagonism of SNC80-stimulated [35S]GTPγS binding in C6-DOR; type: biochemical
DOR [3] = molecular target: T1, DOR; experiment: [35S]GTPγS binding assay, C6-DOR membranes; type: biochemical; settings: [35S]GTPγS assay

`C=CCN1C[C@H](C)N([C@H](c2ccc(C(=O)N(CC)CC)cc2)c2cccc(OC)c2)C[C@H]1C` [SNC80, 4-[(R)-[(2S,5R)-4-allyl-2,5-dimethylpiperazin-1-yl](3-methoxyphenyl)methyl]-N,N-diethylbenzamide] was tested. Which “calculated maximal inhibition of adenylyl cyclase” value (DOR [1]) did it give?
Its value is 76 ± 8.8%.

With `NC(=O)[C@@H]1CSCSC[C@@H](NC(=O)[C@@H](N)Cc2ccc(O)cc2)C(=O)N[C@@H](Cc2ccccc2)C(=O)N[C@@H](Cc2ccc3ccccc3c2)C(=O)N1` [compound 9, Tyr-c(S-CH2-S)[D-Cys-Phe-2-Nal-Cys]NH2] (H-Y[dC]F[2Nal]C-NH2; linker 2-5 via CH2; N-terminus assumed) as the molecule, how does the “efficacy profile at KOR” value (KOR) read?
The value was “full agonist”.

And the “activity in adenylyl cyclase inhibition assay” value (DOR [1]; C6-DOR cells)?
Its value is “partial agonist”.

What about the “calculated maximal inhibition of adenylyl cyclase” value (DOR [1]; calculated maximum, 5 µM forskolin-stimulated, C6-DOR cells) of the same molecule?
Its value is 43 ± 9.0%.

And the “efficacy profile at MOR” value (MOR)?
Its value is “full agonist”.

What about the Kb (DOR [2]) of the same molecule?
The Kb was 48 ± 9.5 nM.

What about the “efficacy profile at DOR” value (DOR [3]) of the same molecule?
Its value is “essentially as antagonists”.

`Oc1ccc2c3c1O[C@H]1c4[nH]c5ccccc5c4C[C@@]4(O)[C@@H](C2)N(CC2CC2)CC[C@]314` [naltrindole] was tested. Which “activity in adenylyl cyclase inhibition assay” value (DOR [1]) did it give?
Its value is “without effect; also recorded: did not inhibit cAMP accumulation”.
